pIC50: −log10 of the molar value. Structures can show the parent of a compound that is named as a salt.
How the values were obtained:
[1] = test system: CCI rats (chronic constriction of the sciatic nerve of Wistar rats); conditions: for efficacy for short-term/acute and long-term/chronic neuropathic pain: intravenous administration
K^+ currents from sdTGNs = assay: Whole-cell voltage-clamp of K+ currents in small diameter trigeminal ganglion neurons; conditions: dose dependent manner
[2] = test system: K^+ currents recorded from a small diameter neuron isolated from a dorsal-root ganglion of the 'affected' side of a CCI rat; assay: Voltage dependence of steady-state inactivation of K+ currents, sdDRG neuron of CCI rat; conditions: CCI rat 28 days after surgery
hKv1.3 = target: T1, hKv1.3 (Homo sapiens, UniProt P22001); assay: Whole-cell voltage-clamp on cell lines expressing Kv1.x channels (nitenin); format: cell-based
T1 construct: expressed in transfected cells
From the text: In the context of this disclosure, “affinity” relates to the effect on the activity of such channel. Affinity can be measured by voltage clamp recordings of currents evoked by cells that express solely that given channel.
Voltage-clamp recordings under the whole-cell configurations were/are used to measure the ‘amount of inhibition’ of the whole-cell current evoked by a given channel expressed in non-excitable cell lines. Dose responses are obtained by measuring such inhibitions per each concentration. Voltage-activated K+ currents were evoked from mammalian cell lines expressing Kv1.1, Kv1.2, Kv1.3, Kv1.4, Kv1.5, kv1.6 or kv1.7 using standard voltage protocols (Schmitz et al., 2005; Vennekamp et al.).

T1 sequence (P22001 whole entry): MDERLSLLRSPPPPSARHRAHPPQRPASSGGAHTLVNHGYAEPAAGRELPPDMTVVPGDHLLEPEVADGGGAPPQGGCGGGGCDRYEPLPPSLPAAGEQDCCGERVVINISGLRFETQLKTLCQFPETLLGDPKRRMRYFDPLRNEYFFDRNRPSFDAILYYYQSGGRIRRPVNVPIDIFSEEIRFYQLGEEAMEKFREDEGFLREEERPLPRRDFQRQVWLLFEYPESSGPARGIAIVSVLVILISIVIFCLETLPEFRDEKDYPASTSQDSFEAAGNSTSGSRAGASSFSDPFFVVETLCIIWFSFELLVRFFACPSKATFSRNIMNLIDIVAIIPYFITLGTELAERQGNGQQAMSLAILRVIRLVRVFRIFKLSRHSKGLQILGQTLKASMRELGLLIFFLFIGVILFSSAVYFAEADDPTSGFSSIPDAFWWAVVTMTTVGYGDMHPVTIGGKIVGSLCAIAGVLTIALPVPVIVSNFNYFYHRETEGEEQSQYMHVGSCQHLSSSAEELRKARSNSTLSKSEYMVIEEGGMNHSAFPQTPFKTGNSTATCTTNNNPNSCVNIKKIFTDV

Question: How did the “efficacy for short-term/acute and long-term/chronic neuropathic pain” value [1] turn out when `CN(CCc1ccc(Cl)c(Cl)c1)CC(O)COc1ccc(NS(C)(=O)=O)cc1` (stereo not shown) [AM92016 hydrochloride] was run?
Answer: effective

Question: And the “effect on K+ currents from sdTGNs” value (K^+ currents from sdTGNs)?
Answer: inhibit the K^+ currents

Question: What about the “Vh1 (voltage of half maximum current, component 1) of steady-state inactivation” value (from here on “Vh1”) ([2]; AM92016 hidrochloride 40 nM, control Vh1=−71.3 mV) of the same compound?
Answer: −93.63 mV

Question: What about the “Vh2 (voltage of half maximum current, component 2) of steady-state inactivation” value (“Vh2” below) ([2]; AM92016 hidrochloride 40 nM, control Vh2=−28.2 mV) of the same compound?
Answer: −33.6 mV

Question: For `O=c1ccc2c(OCCCCOc3ccccc3)c3ccoc3cc2o1` [PAP-1, 5-(4-Phenoxybutoxy)psoralen], which “efficacy for short-term/acute and long-term/chronic neuropathic pain” value [1] is on record?
Answer: effective

Question: What about the “effect on K+ currents from sdTGNs” value (K^+ currents from sdTGNs) of the same compound?
Answer: inhibit the K^+ currents

Question: And the “Vh1” value ([2]; PAP-1 2 nM, control Vh1=−90.1 mV)?
Answer: −101.7 mV

Question: What about the “Vh2” value ([2]; PAP-1 2 nM, control Vh2=−27.8 mV) of the same compound?
Answer: −32.6 mV

Question: For `O=c1ccc2c(OCCCCc3ccccc3)c3ccoc3cc2o1` [PSORA-4, 4-(4-Phenylbutoxy)-7H-furo[3,2-g][1]benzopyran-7-one], which “efficacy for short-term/acute and long-term/chronic neuropathic pain” value [1] is on record?
Answer: effective

Question: And the “effect on K+ currents from sdTGNs” value (K^+ currents from sdTGNs)?
Answer: inhibit the K^+ currents

Question: How did the “efficacy for short-term/acute and long-term/chronic neuropathic pain” value [1] turn out when `C/C(=C\C1C/C(=C/CCc2ccoc2)C(=O)O1)CCCc1ccoc1` (stereo not shown) [nitenin] was run?
Answer: effective

Question: What about the “mechanical sensitivity of the ipsilateral leg at maximum effect” value ([1]; nitenin IV, estimated plasma concentration 1 μg/ml, 26 days after surgery, Von Frey) of the same compound?
Answer: in some instances similar to those obtained during baseline

Question: And the “effect on K+ currents from sdTGNs” value (K^+ currents from sdTGNs)?
Answer: inhibit the K^+ currents

Question: What about the pIC50 (hKv1.3) of the same compound?
Answer: ~6.72

Question: And the “Vh1” value ([2]; nitenin 0.29 μM, control Vh1=−73.3 mV)?
Answer: −95.3 mV

Question: What about the “Vh2” value ([2]; nitenin 0.29 μM, control Vh2=−26.3 mV) of the same compound?
Answer: −47.0 mV

— patent US12697321B2, “Kv1.3 antagonists for use in the treatment of chronic and acute pain” (SEA4US—BIOTECNOLOGIA E RECURSOS MARINHOS, LDA., priority 2019, dated 2026)
